{"source": "paper PMC5085761", "about": "(International Journal of Molecular Sciences, 2016)", "tested_on": "LLC-PK1 monolayers", "experiment": "Apical-to-basal transport through LLC-PK1 monolayers", "type": "in vitro ADME, pig", "conditions": "10 µM tracer, at 120 min", "protocol": "The LLC-PK1 cell line was purchased from DS Pharma Biomedical (Osaka, Japan). Cells were maintained in Dulbecco’s modified Eagle’s medium (DMEM; Life Technologies Japan, Tokyo, Japan) supplemented with 10% (v/v) fetal bovine serum (American Type Culture Collection, Manassas, VA, USA) and antibiotics (100 U/mL penicillin and 100 μg/mL streptomycin (Life Technologies Japan)). Cells were cultured at 37 °C under an atmosphere containing 5% CO2 before the start of the experiments.\nCells were seeded at a density of 1.5 × 10^6 cells/0.25 mL on the membrane of cell culture inserts fitting 24-well plates (upper compartment, apical side; Becton Dickinson, Franklin Lakes, NJ, USA). Flat-bottom 24-well tissue culture plates (Becton Dickinson) containing 0.95 mL of culture medium per well were used as the basolateral side (bottom compartment).\nLLC-PK1 monolayer formation was monitored by the measurement of TER using an EVOM-2 and Endohm24 (World Precision Instruments, Inc., Sarasota, FL, USA) according to the manufacturer’s protocol. […] [^3H]Mannitol transport was measured as described in Section 4.3 for the validation of tight junction formation because mannitol passes through the cell monolayers via the paracellular route.\nExperimental procedures were performed as described previously with minor modifications. After cultivation as described above, the culture media in both compartments were replaced with Na^+ buffer (137 mM NaCl, 2.7 mM KCl, 8 mM Na2HPO4, 1.5 mM KH2PO4, 5.6 mM D-glucose, 0.9 mM CaCl2, and 0.5 mM MgCl2; pH 7.4 at 37 °C), and the cells were preincubated for 10 min at 37 °C under normal air conditions. After the buffer was removed from each compartment, the permeability experiments were started with the addition of 0.25 mL of Na^+ buffer containing radiolabeled tracers (final concentration: 81 nM for [^3H]mannitol and 10 μM for the ^14C-labeled amino acid tracers) in each upper compartment, and 0.95 mL of Na^+ buffer in each bottom compartment. The inserts were placed into new 24-well culture plates containing 0.95 mL/well of Na^+ buffer after 5, 15, 30, 60, and 90 min of incubation. Subsequently, the cells were incubated up to 120 min at 37 °C under normal air conditions.\nThe apical-to-basal permeability was measured by sampling an aliquot of the buffer from the upper and bottom compartment at the indicated times. To evaluate intracellular accumulation, the cells were lysed in 0.5 mL of 0.1N NaOH at room temperature following rapid washing of the cells with ice-cold Na^+ buffer. The radioactivity of each aliquot was measured with an LSC6000SC (Beckman Coulter, Inc., Brea, CA, USA) or Tri-Carb 2910TR liquid scintillation counter (PerkinElmer) using Ultima Gold (PerkinElmer)."}
{"compound": "N[14C]1(C(=O)O)CC(F)C1", "note": "(stereo not drawn) [[^14C]fluciclovine, trans-1-amino-3-fluoro[1-^14C]cyclobutanecarboxylic acid]", "values": [{"measurement": "mean penetration amount (apical-to-basal transport)", "result": 145, "unit": "pmol"}, {"measurement": "mean residual radioactivity in the cells", "result": 238, "unit": "pmol"}]}
